Values quoted from earlier work in US20130053541A1, “METHODS FOR DISCOVERING MOLECULES THAT BIND TO PROTEINS” (LYNNTECH, INC., priority 2011, published 2013).

Key:
[1] = cited from earlier work
[2] = system: mAb-E2; details: cited from earlier work
[3] = molecular target: T1, ERα (Homo sapiens, UniProt P03372); details: cited from earlier work
T1 sequence (P03372 1-595): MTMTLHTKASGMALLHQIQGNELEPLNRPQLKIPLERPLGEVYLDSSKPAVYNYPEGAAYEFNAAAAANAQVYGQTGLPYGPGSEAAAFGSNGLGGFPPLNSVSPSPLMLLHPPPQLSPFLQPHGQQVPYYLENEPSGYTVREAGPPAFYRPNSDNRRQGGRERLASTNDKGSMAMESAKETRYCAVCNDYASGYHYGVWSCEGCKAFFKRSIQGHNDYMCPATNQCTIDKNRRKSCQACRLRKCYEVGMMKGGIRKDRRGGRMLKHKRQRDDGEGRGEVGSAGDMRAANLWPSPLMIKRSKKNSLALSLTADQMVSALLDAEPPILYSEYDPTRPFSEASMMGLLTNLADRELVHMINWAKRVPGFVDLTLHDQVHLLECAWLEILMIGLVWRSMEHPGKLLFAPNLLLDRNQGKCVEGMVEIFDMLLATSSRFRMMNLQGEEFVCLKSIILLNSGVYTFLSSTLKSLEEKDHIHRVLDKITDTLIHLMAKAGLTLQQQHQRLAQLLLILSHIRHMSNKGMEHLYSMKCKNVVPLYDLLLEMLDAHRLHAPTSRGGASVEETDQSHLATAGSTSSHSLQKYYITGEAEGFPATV

[4] = molecular target: T2, (Homo sapiens, UniProt P11474); details: phage display peptides; cited from earlier work
T2 sequence (P11474 1-423): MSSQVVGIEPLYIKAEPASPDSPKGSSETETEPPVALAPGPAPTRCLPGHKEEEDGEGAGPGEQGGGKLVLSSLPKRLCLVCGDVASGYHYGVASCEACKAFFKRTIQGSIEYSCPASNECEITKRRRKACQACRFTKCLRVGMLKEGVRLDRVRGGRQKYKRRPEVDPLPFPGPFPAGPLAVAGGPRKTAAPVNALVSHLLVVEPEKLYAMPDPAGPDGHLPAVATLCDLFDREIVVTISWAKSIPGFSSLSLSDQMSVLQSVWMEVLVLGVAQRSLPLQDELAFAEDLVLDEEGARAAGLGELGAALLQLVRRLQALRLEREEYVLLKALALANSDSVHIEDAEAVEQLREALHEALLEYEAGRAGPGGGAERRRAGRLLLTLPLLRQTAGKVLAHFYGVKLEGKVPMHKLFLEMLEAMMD

[5] = molecular target: T1, ERα; details: inhibition of estrogen receptor/coactivator recognition, cited from earlier work; for Ki: read-out: K, values ERα
[6] = molecular target: ERβ (Homo sapiens, UniProt Q92731); details: cited from earlier work; for Ki: inhibition of estrogen receptor/coactivator recognition, read-out: K, values ERβ; for ERβ/ERα: ratio of K values
[7] = molecular target: T3, ERRgamma ligand-binding domain (LBD) (Homo sapiens, UniProt P62508); details: cited from earlier work; for interaction with ERRgamma: in the absence of ligand
T3 sequence (P62508 233-457 limits assumed): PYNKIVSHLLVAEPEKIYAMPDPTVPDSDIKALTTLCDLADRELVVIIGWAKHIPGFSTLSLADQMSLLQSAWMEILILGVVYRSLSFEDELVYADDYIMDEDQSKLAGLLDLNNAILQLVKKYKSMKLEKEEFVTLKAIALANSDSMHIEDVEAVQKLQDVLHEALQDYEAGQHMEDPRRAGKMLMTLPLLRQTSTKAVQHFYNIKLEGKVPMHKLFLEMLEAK

Chain of ERβ (Q92731 whole entry, species assumed, the tested form may be a part): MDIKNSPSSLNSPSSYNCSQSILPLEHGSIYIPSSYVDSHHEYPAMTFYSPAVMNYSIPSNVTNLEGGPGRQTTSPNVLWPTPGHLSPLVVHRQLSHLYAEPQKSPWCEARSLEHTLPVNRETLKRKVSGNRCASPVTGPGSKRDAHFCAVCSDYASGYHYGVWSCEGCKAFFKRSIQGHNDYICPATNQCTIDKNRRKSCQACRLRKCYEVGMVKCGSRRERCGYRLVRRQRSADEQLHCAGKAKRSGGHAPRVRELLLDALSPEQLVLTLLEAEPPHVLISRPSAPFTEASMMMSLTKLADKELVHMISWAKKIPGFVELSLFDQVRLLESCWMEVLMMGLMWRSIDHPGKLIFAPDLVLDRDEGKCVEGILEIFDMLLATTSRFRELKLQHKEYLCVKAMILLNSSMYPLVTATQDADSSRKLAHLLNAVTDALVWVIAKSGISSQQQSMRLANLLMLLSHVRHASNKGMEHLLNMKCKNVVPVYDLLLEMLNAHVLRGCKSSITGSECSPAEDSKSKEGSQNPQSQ

In the case of VSWFFE [EMP-1], the “estrogenic activity in vivo” value [1] is given as “possess estrogenic activity in vivo”, the IC50 [2] is given as 0.006 µM and the IC50 [3] is given as 100 µM.

In the case of IPLSGSELSRLLLTEMPEL [Peptide L3-80], the “inhibition of transcriptional activity of EPPα” value (shortened to “inhibition”) [4] is given as “reducing the transcriptional activity of EPPα to basal levels”.

In the case of PSEDRGELWRLLSVTERQN [Peptide L3-09], the “inhibition” value [4] is given as “reducing the transcriptional activity of EPPα to basal levels”.

For KKILHRLLQ [Structure 3], the Ki [5] is listed as 0.17 µM, the Ki [6] is listed as 2.8 µM and the ERβ/ERα [6] is listed as 16.5.

In the case of LTERHKILHRLLQEGSPSD [Structure 9], the Ki [5] is listed as 0.7 µM, the Ki [6] is listed as 5.2 µM and the ERβ/ERα [6] is listed as 7.4.

In the case of QAQQKSLLQQLLTE [Structure 10], the Ki [5] is given as 0.45 µM, the Ki [6] is given as 1.1 µM and the ERβ/ERα [6] is given as 2.4.

For EAEEPSLLKKLLLAPANTQ [PGC1alpha], the “interaction with ERRgamma” value [7] is given as “interacted most strongly”.

For 4-hydroxytamoxifen, the “displacement of fluorescein-labeled PGC1alpha peptide from the ERRgamma LBD” value ([7]; increasing concentrations) is given as “displaced”.

For “Mannosylacetyl-Leu-Glu-Gln-Leu-Leu-OH (Mannosylacetyl-LEQLL-OH) [Structure 2]”, the Ki [5] is listed as > 200 µM and the Ki [6] is listed as > 200 µM.

In the case of KHKILHRLLQDSS [Structure 4], the Ki [5] is given as 0.38 µM, the Ki [6] is given as 6.9 µM and the ERβ/ERα [6] is given as 18.1.

In the case of MSVQYPELQRLLMAGSTEL [Peptide L3-28], the “inhibition” value [4] is listed as “reducing the transcriptional activity of EPPα to basal levels”.

In the case of LPYEGSLLLKLLRAPVEEV [Peptide D22], the “interaction with ERRgamma” value [7] is listed as “interacted most strongly”.

For GPQTPQAQQKSLLQQLLTE [SRC1-4], the “interaction with ERRgamma” value [7] is listed as “interacted most strongly”.

For “LEQLL [Structure 1, H-Leu-Glu-Gln-Leu-Leu-OH]”, the “K, values ERα” value [5] is given as “not active” and the Ki [6] is given as 201 µM.

In the case of VSWFFED [EMP-2], the “estrogenic activity in vivo” value [1] is given as “possess estrogenic activity in vivo”, the IC50 [2] is given as 0.03 µM and the IC50 [3] is given as 100 µM.
